Measured values reported in patent US20100298141A1, “SUBSTITUTED PYRIDINE N-OXIDE HERBICIDES” (E. I. DU PONT DE NEMOURS AND COMPANY, priority 2007, published 2010).

Assays:
Test in all cases: Test F preemergence test
[1] = tested on: barnyardgrass; type: in vivo, Echinochloa crus-galli; settings: scale 0 to 100
How it was run: (§1)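 Visual ratings relative to controls, taken after 14 to 21 days in a greenhouse. Test chemicals, formulated in a surfactant-containing non-phytotoxic solvent mixture, were applied preemergence to sown seeds or postemergence to sugarcane plants.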

[2] = tested on: johnsongrass; type: in vivo, Sorghum halepense; settings: scale 0 to 100
How it was run: as §1

[3] = tested on: dallisgrass; type: in vivo, Paspalum dilatatum; settings: scale 0 to 100
How it was run: as §1

[4] = tested on: Virginia dayflower; type: in vivo, Commelina virginica; settings: Preemergence, scale 0 to 100
How it was run: as §1

[5] = tested on: kochia; type: in vivo, Kochia scoparia; settings: scale 0 to 100
How it was run: as §1

[6] = tested on: broadleaf signalgrass; type: in vivo, Brachiaria platyphylla; settings: scale 0 to 100
How it was run: as §1

[7] = tested on: common groundsel; type: in vivo, Senecio vulgaris; settings: scale 0 to 100
How it was run: as §1

[8] = tested on: guineagrass; type: in vivo, Panicum maximum; settings: scale 0 to 100
How it was run: as §1

[9] = tested on: naked crabgrass; type: in vivo, Digitaria nuda; settings: scale 0 to 100
How it was run: as §1

[10] = tested on: prickly sida; type: in vivo, Sida spinosa; settings: scale 0 to 100
How it was run: as §1

[11] = tested on: bermudagrass; type: in vivo, Cynodon dactylon; settings: scale 0 to 100
How it was run: as §1

[12] = tested on: mustard; type: in vivo, Brassica nigra; settings: scale 0 to 100
How it was run: as §1

[13] = tested on: goosegrass; type: in vivo, Eleusine indica; settings: scale 0 to 100
How it was run: as §1

[14] = tested on: Surinam grass; type: in vivo, Brachiaria decumbens; settings: scale 0 to 100
How it was run: as §1

[15] = tested on: large crabgrass; type: in vivo, Digitaria sanguinalis; settings: scale 0 to 100
How it was run: as §1

[16] = tested on: itchgrass; type: in vivo, Rottboellia cochinchinensis; settings: scale 0 to 100
How it was run: as §1

[17] = tested on: pitted morningglory; type: in vivo, Ipomoea lacunosa; settings: scale 0 to 100
How it was run: as §1

[18] = tested on: common ragweed; type: in vivo, Ambrosia elation; settings: scale 0 to 100
How it was run: as §1

[19] = tested on: common purslane; type: in vivo, Portulaca oleracea; settings: scale 0 to 100
How it was run: as §1

[20] = tested on: Italian ryegrass; type: in vivo, Lolium multiflorum; settings: scale 0 to 100
How it was run: as §1

[21] = tested on: quackgrass; type: in vivo, Elytrigia repens; settings: scale 0 to 100
How it was run: as §1

CC(c1c(C(F)(F)F)nn(C)c1OC(F)F)S(=O)(=O)c1cccc[n+]1[O-] (centres unmarked) [Compound 5]
0: Plant response rating, Dallisgrass ([3]; 8 g ai/ha, preemergence) | Plant response rating, Kochia ([5]; 8 g ai/ha, preemergence) | Plant response rating, Kochia ([5]; Preemergence, 16 g ai/ha) | Plant response rating, Kochia ([5]; Preemergence, 31 g ai/ha) | Plant response rating, Signalgrass ([6]; 8 g ai/ha, preemergence) | Plant response rating, Prickly Sida ([10]; 8 g ai/ha, preemergence) | Plant response rating, Black Mustard ([12]; 8 g ai/ha, preemergence) | Plant response rating, Surinam Grass ([14]; 8 g ai/ha, preemergence) | Plant response rating, Morningglory ([17]; 8 g ai/ha, preemergence) | Plant response rating, Purslane ([19]; 8 g ai/ha, preemergence)
25: Plant response rating, Johnsongrass ([2]; 8 g ai/ha, preemergence) | Plant response rating, Bermudagrass ([11]; 8 g ai/ha, preemergence) | Plant response rating, Itchgrass ([16]; Preemergence, 16 g ai/ha)
30: Plant response rating, Signalgrass ([6]; 16 g ai/ha, preemergence)
75: Plant response rating, Barnyardgrass ([1]; Preemergence, 16 g ai/ha) | Plant response rating, Dallisgrass ([3]; Preemergence, 31 g ai/ha) | Signalgrass plant response rating ([6]; 62 g ai/ha, Preemergence) | Plant response rating, Black Mustard ([12]; Preemergence, 31 g ai/ha) | Plant response rating, Ragweed ([18]; Preemergence, 31 g ai/ha) | Ryegrass, Italian plant response rating ([20]; 62 g ai/ha, Preemergence)
95: Plant response rating, Crabgrass, Naked ([9]; Preemergence, 16 g ai/ha) | Crabgrass, Large plant response rating ([15]; 62 g ai/ha, Preemergence)
65: Plant response rating, Dallisgrass ([3]; Preemergence, 16 g ai/ha) | Plant response rating, Dayflower ([4]; 16 g ai/ha) | Plant response rating, Ragweed ([18]; Preemergence, 16 g ai/ha) | Purslane plant response rating ([19]; 62 g ai/ha, Preemergence)
20: Plant response rating, Guineagrass ([8]; 8 g ai/ha, preemergence)
90: Plant response rating, Dayflower ([4]; 31 g ai/ha) | Plant response rating, Goosegrass ([13]; Preemergence, 31 g ai/ha) | Plant response rating, Surinam Grass ([14]; Preemergence, 31 g ai/ha) | Itchgrass plant response rating ([16]; 62 g ai/ha, Preemergence)
10: Plant response rating, Goosegrass ([13]; 8 g ai/ha, preemergence) | Plant response rating, Crabgrass, Large ([15]; 8 g ai/ha, preemergence) | Plant response rating, Itchgrass ([16]; 8 g ai/ha, preemergence) | Plant response rating, Ryegrass, Italian ([20]; 8 g ai/ha, preemergence) | Plant response rating, Quackgrass ([21]; 8 g ai/ha, preemergence)
35: Plant response rating, Signalgrass ([6]; Preemergence, 31 g ai/ha) | Plant response rating, Black Mustard ([12]; Preemergence, 16 g ai/ha) | Plant response rating, Itchgrass ([16]; Preemergence, 31 g ai/ha) | Plant response rating, Purslane ([19]; Preemergence, 16 g ai/ha)
98: Plant response rating, Barnyardgrass ([1]; Preemergence, 31 g ai/ha) | Dallisgrass plant response rating ([3]; 62 g ai/ha, Preemergence)
80: Plant response rating, Surinam Grass ([14]; 16 g ai/ha, preemergence) | Plant response rating, Crabgrass, Large ([15]; Preemergence, 16 g ai/ha) | Morningglory plant response rating ([17]; 62 g ai/ha, Preemergence)
50: Plant response rating, Johnsongrass ([2]; Preemergence, 16 g ai/ha) | Plant response rating, Prickly Sida ([10]; Preemergence, 16 g ai/ha) | Plant response rating, Bermudagrass ([11]; Preemergence, 16 g ai/ha) | Plant response rating, Morningglory ([17]; Preemergence, 16 g ai/ha) | Plant response rating, Morningglory ([17]; Preemergence, 31 g ai/ha) | Plant response rating, Ragweed ([18]; 8 g ai/ha, preemergence) | Plant response rating, Purslane ([19]; Preemergence, 31 g ai/ha) | Plant response rating, Quackgrass ([21]; Preemergence, 16 g ai/ha)
100: Barnyardgrass plant response rating ([1]; 62 g ai/ha, Preemergence) | Johnsongrass plant response rating ([2]; 62 g ai/ha, Preemergence) | Plant response rating, Johnsongrass ([2]; Preemergence, 31 g ai/ha) | Dayflower plant response rating ([4]; 62 g ai/ha) | Plant response rating, Groundsel ([7]; 8 g ai/ha, preemergence) | Groundsel plant response rating ([7]; 62 g ai/ha, Preemergence) | Plant response rating, Groundsel ([7]; Preemergence, 16 g ai/ha) | Plant response rating, Groundsel ([7]; Preemergence, 31 g ai/ha) | Guineagrass plant response rating ([8]; 62 g ai/ha, Preemergence) | Plant response rating, Guineagrass ([8]; Preemergence, 16 g ai/ha) | Plant response rating, Guineagrass ([8]; Preemergence, 31 g ai/ha) | Crabgrass, Naked plant response rating ([9]; 62 g ai/ha, Preemergence) | Plant response rating, Crabgrass, Naked ([9]; Preemergence, 31 g ai/ha) | Prickly Sida plant response rating ([10]; 62 g ai/ha, Preemergence) | Plant response rating, Prickly Sida ([10]; Preemergence, 31 g ai/ha) | Bermudagrass plant response rating ([11]; 62 g ai/ha, Preemergence) | Plant response rating, Bermudagrass ([11]; Preemergence, 31 g ai/ha) | Goosegrass plant response rating ([13]; 62 g ai/ha, Preemergence) | Surinam Grass plant response rating ([14]; 62 g ai/ha, Preemergence) | Ragweed plant response rating ([18]; 62 g ai/ha, Preemergence)
60: Plant response rating, Crabgrass, Naked ([9]; 8 g ai/ha, preemergence) | Plant response rating, Ryegrass, Italian ([20]; Preemergence, 31 g ai/ha)
40: Kochia plant response rating ([5]; 62 g ai/ha, Preemergence) | Plant response rating, Ryegrass, Italian ([20]; Preemergence, 16 g ai/ha)
70: Plant response rating, Barnyardgrass ([1]; 8 g ai/ha, preemergence) | Plant response rating, Quackgrass ([21]; Preemergence, 31 g ai/ha)
85: Black Mustard plant response rating ([12]; 62 g ai/ha, Preemergence) | Plant response rating, Goosegrass ([13]; Preemergence, 16 g ai/ha) | Plant response rating, Crabgrass, Large ([15]; Preemergence, 31 g ai/ha) | Quackgrass plant response rating ([21]; 62 g ai/ha, Preemergence)
